Results on 8 compounds are retold here after patent US6867192B1, “Compounds useful in the treatment of inflammatory diseases” (priority 1998, dated 2005).

The assay has as its system ovalbumin sensitised guinea pigs. Kind of assay: Inhibition of eosinophil infiltration and hyper-reactivity in the guinea pig. The format is in vivo. As to conditions: Cavia porcellus, Eosinophil, inhaled or nasal, 24 h, 0.5 hours before and 6 hours after antigen challenge; for inhibition in vivo at 0.0002 mg/kg: intratracheal dose 0.2 μg/kg body weight; for inhibition in vivo at 0.002 mg/kg: intratracheal dose 2 μg/kg body weight. The method, then: (3) Inhibition of Eosinophil Infiltration and Hyper-Reactivity in the Guinea Pig
In a method based on that described by Danahay et al., 1997, ovalbumin sensitised guinea pigs were dosed with mepyramine (30 mg kg^−1 ip) to protect against anaphylactic bronchospasm. Test compounds, dissolved in 0.9% saline, were given by the inhaled route (30 minutes breathing of an aerosol of the compound) or the intra-tracheal route, 30 minutes before and 6 hours after ovalbumin challenge (10 minutes breathing of an aerosol generated from a 0.5% solution of ovalbumin). Hyper-reactivity of the airways to the thromboxane mimetic U46619, was measured 24 hours after ovalbumin challenge in un-restrained animals using a whole body plethysmograph (Buxco Ltd., USA). The guinea pigs were then sacrificed and the lungs lavaged. Total and differential leukocyte counts were then obtained for the bronchoalveolar lavage fluid and the percentage reduction in eosinophil accumulation determined (Sanjar et al., 1992). Dexamethasone (200 μg kg^−1 i.t) was used as a positive control. Data was presented as the inhibitory effect of the specified dose expressed as a percentage of the vehicle control response.

[1] abbreviates: airway hyper-reactivity to U46619, read-out: % Inhibition Hyper-reactivity.
The mark [2] stands for this setting: read-out: % Inhibition Eosinophil Accumulation.

The structures appear in SMILES notation. Where two headings read alike, the source gives them in different places.

Turning to `CC(=O)N1CCN(C(=O)Oc2ccc(C[C@H](NC(=O)[C@H](CC(C)C)NC(=O)COc3ccccc3C(C)(C)C)C(=O)O)cc2)CC1` [Example 16, (2S)-3-(4-{[(4-Acetyl-1-piperazinyl)carbonyl]oxy}phenyl)-2-{[(2S)-2-({2-[2-(tert-butyl)phenoxy]acetyl}amino)-4-methylpentanoyl]amino}propanoic acid], the inhibition in vivo at 0.0002 mg/kg under setting [1] is 80% and the inhibition in vivo at 0.0002 mg/kg under setting [2] turned out to be 62%. In addition, the inhibition in vivo at 0.002 mg/kg under setting [1] came out at 95% and the inhibition in vivo at 0.002 mg/kg under setting [2] was 78%.

In the case of `Cc1ccccc1OCC(=O)N[C@@H](CC(C)C)C(=O)N[C@@H](Cc1ccc(OC(=O)N2CCC(C(N)=O)CC2)cc1)C(=O)O` [Example 27, (2S)-3-[4-({[4-(Aminocarbonyl)-1-piperidinyl]carbonyl}oxy)phenyl]-2-[((2S)-4-methyl-2-{[2-(2-methylphenoxy)acetyl]amino}pentanoyl)amino]propanoic acid], under setting [1], the inhibition in vivo at 0.0002 mg/kg turned out to be 88% and the inhibition in vivo at 0.002 mg/kg stood at 87%. In addition, under setting [2], the inhibition in vivo at 0.0002 mg/kg was found to be 58% and the inhibition in vivo at 0.002 mg/kg came out at 90%.

Consider `CC(C)C[C@H](NC(=O)COc1ccccc1I)C(=O)N[C@@H](Cc1ccc(OC(=O)N2CCOCC2)cc1)C(=O)O` [Example 23, (2S)-2-[((2S)-2-{[2-(2-Iodophenoxy)acetyl]amino}-4-methylpentanoyl)amino]-3-{4-[(4-morpholinylcarbonyl)oxy]phenyl}propanoic acid], for which the inhibition in vivo at 0.002 mg/kg was 79% under setting [1] and 51% under setting [2].

For the compound `CC(C)C[C@H](NC(=O)c1cccc2c1oc1ccccc12)C(=O)N[C@@H](Cc1ccc(OC(=O)N2CCC(C(N)=O)CC2)cc1)C(=O)O` [Example 28, (2S)-3-[4-({[4-(Aminocarbonyl)-1-piperidinyl]carbonyl}oxy)phenyl]-2-({(2S)-2-[(dibenzo[b,d]furan-4-ylcarbonyl)amino]-4-methylpentanoyl}amino)propanoic acid], under setting [1], the inhibition in vivo at 0.0002 mg/kg was determined as 70% and the inhibition in vivo at 0.002 mg/kg was 47%. Also, under setting [2], the inhibition in vivo at 0.0002 mg/kg is 3% and the inhibition in vivo at 0.002 mg/kg was determined as 62%.

For `Cc1ccccc1OCC(=O)N[C@@H](CC(C)C)C(=O)N[C@@H](Cc1ccc(OC(=O)N2CCN(C(=O)c3ccccc3)CC2)cc1)C(=O)O` [Example 21, (2S)-3-(4-{[(4-Benzoyl-1-piperazinyl)carbonyl]oxy}phenyl)-2-[((2S)-4-methyl-2-{[2-(2-methylphenoxy)acetyl]amino}pentanoyl)amino]propanoic acid], under setting [1], the inhibition in vivo at 0.0002 mg/kg is 82% and the inhibition in vivo at 0.002 mg/kg stood at 85%. Besides, under setting [2], the inhibition in vivo at 0.0002 mg/kg turned out to be 49% and the inhibition in vivo at 0.002 mg/kg is 79%.

For the compound `CC(=O)N1CCN(C(=O)Oc2ccc(C[C@H](NC(=O)[C@H](CC(C)C)NC(=O)COc3ccccc3C)C(=O)O)cc2)CC1` [Example 17, (2S)-3-(4-{[(4-Acetyl-1-piperazinyl)carbonyl]oxy}phenyl)-2-[((2S)-4-methyl-2-{[2-(2-methylphenoxy)acetyl]amino}pentanoyl)amino]propanoic acid], under setting [1], the inhibition in vivo at 0.0002 mg/kg turned out to be 58% and the inhibition in vivo at 0.002 mg/kg stood at 88%. Moreover, under setting [2], the inhibition in vivo at 0.0002 mg/kg amounted to 68% and the inhibition in vivo at 0.002 mg/kg was determined as 61%.

For `CC(C)C[C@H](NC(=O)COc1ccccc1C(C)(C)C)C(=O)N[C@@H](Cc1ccc(OC(=O)N2CCOCC2)cc1)C(=O)O` [Example 24, (2S)-2-{[(2S)-2-({2-[2-(Tert-butyl)phenoxy]acetyl}amino)-4-methylpentanoyl]amino}-3-{4-[(4-morpholinylcarbonyl)oxy]phenyl}propanoic acid], under setting [1], the inhibition in vivo at 0.0002 mg/kg came out at 44% and the inhibition in vivo at 0.002 mg/kg was determined as 85%. Also, under setting [2], the inhibition in vivo at 0.0002 mg/kg was 26% and the inhibition in vivo at 0.002 mg/kg was 77%.

Regarding `CC(C)C[C@H](NC(=O)COc1ccccc1C(C)(C)C)C(=O)N[C@@H](Cc1ccc(OC(=O)N2CCN(C(=O)c3ccccc3)CC2)cc1)C(=O)O` [Example 20, (2S)-3-(4-{[(4-Benzoyl-1-piperazinyl)carbonyl]oxy}phenyl)-2-{[(2S)-2-({2-[2-(tert-butyl)phenoxy]acetyl}amino)-4-methylpentanoyl]amino}propanoic acid], under setting [1], the inhibition in vivo at 0.0002 mg/kg was found to be 85% and the inhibition in vivo at 0.002 mg/kg is 100%. Besides, under setting [2], the inhibition in vivo at 0.0002 mg/kg is 67% and the inhibition in vivo at 0.002 mg/kg worked out at 79%.
